According to PubChem BioAssay AID493156 (Johns Hopkins Ion Channel Center, 2011):

Molecular target: Voltage-gated inwardly rectifying potassium channel KCNH2 (Homo sapiens) (UniProt Q12809)
Test: blockers of hERG current – automated electrophysiology, CHO cells, Ionworks Quattro, primary screen (AID 493156)
Conditions: automated patch clamp current, stronger effect = lower value

Sequence of Voltage-gated inwardly rectifying potassium channel KCNH2 (Homo sapiens) (Q12809 whole entry, looked up): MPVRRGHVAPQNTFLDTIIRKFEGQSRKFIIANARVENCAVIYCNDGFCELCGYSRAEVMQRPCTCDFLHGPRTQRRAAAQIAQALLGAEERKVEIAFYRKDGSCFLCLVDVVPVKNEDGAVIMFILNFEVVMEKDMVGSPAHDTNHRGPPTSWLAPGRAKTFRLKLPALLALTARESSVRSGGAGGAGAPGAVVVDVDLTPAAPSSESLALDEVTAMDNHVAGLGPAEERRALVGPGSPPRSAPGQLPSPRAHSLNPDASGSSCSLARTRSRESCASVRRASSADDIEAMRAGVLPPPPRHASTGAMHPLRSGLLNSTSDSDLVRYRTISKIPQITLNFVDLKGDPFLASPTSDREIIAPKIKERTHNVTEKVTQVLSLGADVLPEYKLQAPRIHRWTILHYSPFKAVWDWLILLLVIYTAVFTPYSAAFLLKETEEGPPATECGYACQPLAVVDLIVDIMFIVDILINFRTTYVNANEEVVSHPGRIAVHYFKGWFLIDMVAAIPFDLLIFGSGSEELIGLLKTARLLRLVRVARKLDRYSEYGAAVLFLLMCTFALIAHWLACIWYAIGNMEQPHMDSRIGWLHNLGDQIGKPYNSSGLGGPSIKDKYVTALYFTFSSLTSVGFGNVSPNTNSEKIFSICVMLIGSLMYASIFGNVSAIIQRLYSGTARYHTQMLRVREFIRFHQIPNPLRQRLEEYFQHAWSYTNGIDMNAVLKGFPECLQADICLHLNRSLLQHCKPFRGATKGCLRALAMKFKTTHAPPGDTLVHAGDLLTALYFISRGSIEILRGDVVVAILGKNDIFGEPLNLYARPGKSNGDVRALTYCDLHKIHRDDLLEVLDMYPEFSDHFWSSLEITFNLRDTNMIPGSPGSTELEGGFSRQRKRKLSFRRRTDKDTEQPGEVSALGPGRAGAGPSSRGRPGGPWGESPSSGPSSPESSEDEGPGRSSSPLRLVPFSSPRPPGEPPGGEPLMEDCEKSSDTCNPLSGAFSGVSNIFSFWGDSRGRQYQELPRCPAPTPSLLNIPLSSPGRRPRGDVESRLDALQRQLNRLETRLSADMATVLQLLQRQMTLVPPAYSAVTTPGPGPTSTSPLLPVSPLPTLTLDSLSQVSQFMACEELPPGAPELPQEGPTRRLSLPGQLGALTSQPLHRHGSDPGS

Structure (SMILES) | current change, negative = inhibition (at 10 µM) | current change, negative = inhibition (current change, at 1 µM)
Cc1ccccc1C(=O)Nc1ccnn1C1CCN(Cc2cccnc2)CC1 | -100% | -58.5%
O=C(c1cccc(-c2ccco2)c1)N1CCCC(N2CCN(c3ccc(F)cc3)CC2)C1 (stereo not drawn) | -100% | -45.2%
CCc1ccc(CN2CCC(Oc3ccc(C(=O)N4CCCC4)cc3)CC2)cc1 | -100% | -87.6%
Cc1occc1C(=O)N1CCN(c2ccc([N+](=O)[O-])cc2)CC1 | -100% | -55.3%
Cc1ccc(-n2ncc3c2CCCC3NC(=O)c2ccoc2)cc1C (stereo not drawn) | -100% | -88.6%
CCn1cc(CN2CCC(C(=O)Nc3cccc(-c4cccc(Cl)c4)c3)CC2)c(C)n1 | -100% | -48.6%
CSc1cccc(CN2CCCC(CNC(=O)c3ccco3)C2)c1 (stereo not drawn) | -100% | -57.7%
Cc1ccccc1CN1CCN(C(=O)c2cc(-c3ccncc3)nc3ccccc23)CC1 | -100% | -25.6%
Cc1cc(C)n(CCCN2CCC(C(=O)Nc3cccc(-c4cccc(F)c4)c3)CC2)n1 | -100% | -69.7%
